# Literature values, collected in patent US11213608B2, “Compositions including gelatin nanoparticles and methods of use thereof” (Wake Forest University Health Sciences, priority 2018, dated 2022).
# System: HepG2 cells
smiles,measurement,value
"Cc1c(C)c2c(c(C)c1O)CCC(C)(COc1ccc(CC3SC(=O)NC3=O)cc1)O2 (stereo not shown) [TRO, troglitazone]",concentration above which toxic effects are commonly reported,above 100 μM
